Results reported in PMC6017358 (Molecules : A Journal of Synthetic Chemistry and Natural …, 2018).
In brackets after ≈: the same amount, converted by molar mass. Several values for one entry are separate records, joined by “and”; a condition that tells them apart may be missing. Identical values can stand only once. Counter-ions that a name gives are not always drawn. Like-named read-outs stand apart in the source and are kept apart here.

What was measured:
[1] = tested on: breast cancer cell line MCF-7; experiment: In vitro cytotoxicity viability assay (crystal violet); type: cell-based; details: Homo sapiens, MCF7
Method: (§1) The cells were seeded in 96-well plates at a cell concentration of 1 × 10^4 cells per well in 100 µL of growth medium. Fresh medium containing different concentrations of the test sample was added 24 h after seeding. Serial two-fold dilutions of the tested chemical compound were added to confluent cell monolayers dispensed into 96-well, flat-bottomed microliter plates (Falcon, NJ, USA) using a multichannel pipette. The microliter plates were incubated at 37 °C in a humidified incubator with 5% CO2 for a period of 48 h. Three wells were used for each concentration of the test sample. Control cells were incubated without test sample and with or without DMSO. The little percentage of DMSO present in the wells (maximal 0.1%) was found not to affect the experiment. After incubation of the cells at 37 °C, various concentrations of sample were added, and the incubation was continued for 24 h and viable cells yield was determined by a colorimetric method. In brief, after the end of the incubation period, media were aspirated and the crystal violet solution (1%) was added to each well for at least 30 min. The stain was removed and the plates were rinsed using tap water until all excess stain is removed. Glacial acetic acid (30%) was then added to all wells and mixed thoroughly, and then the absorbance of the plates were measured after gently shaken on microplate reader (TECAN, Inc., Morrisville, NC, USA), using a wavelength of 490 nm. All results were corrected for background absorbance detected in wells without added stain. Treated samples were compared with the cell control in the absence of the tested compounds. All experiments were carried out in triplicate. The cell cytotoxic effect of each tested concentration was calculated. The optical density was measured with the microplate reader (SunRise, TECAN, Inc., Morrisville, NC, USA) to determine the number of viable cells and the percentage of viability was calculated as [1 − (ODt/ODc)] × 100% where ODt is the mean optical density of wells treated with the tested sample and ODc is the mean optical density of untreated cells. The relation between surviving cells and drug concentration is plotted to get the survival curve of each tumor cell line after treatment. […] The biological evaluation was done at the Regional Center for Mycology & Biotechnology, Al-Azhar University.

[2] = tested on: lung cancer cell line A-549; experiment: as above; type: cell-based; details: Homo sapiens, A549
Method: as §1

rats = details: oral administration in rats; cited from earlier work

Structure (SMILES)	IC50 ([1]; MCF-7, read-out: IC50) [µg/mL]	IC50 ([2]; read-out: IC50) [µg/mL]	LD50 (rats) [mg/kg]	IC50 [1]	IC50 [2]
NCCCC(O)(P(=O)(O)O)P(=O)(O)O [Alendronate, reference compound]	89.4 (≈ 359 µM)	19 (≈ 76.3 µM)			
CP(=O)(O)CCC(N)C(=O)O (centres unmarked) [Phosphinothricin, 2-amino-4-(hydroxymethyl-phosphinylbutyric acid ammonium salt]			2170	32.6 µg/mL and 180 µM	45.8 µg/mL and 253 µM
